Three molecules from patent publication US20160213742A1, “COMPOSITIONS AND METHODS FOR THE TREATMENT OF FUNGAL INFECTIONS” (priority 2013, published 2016) can be followed below.

Common to all, as to format: cell-based
Assay [1] has as its system A. fumigatus MYA-3626. Nature of the assay: MEC assay (Example 32). The following applies: MEC values (24 h), rounded/compact hyphal morphology. Here is the method:
(§1) MIC and MEC assays were run as described in Example 31 with the following exceptions. Starting solutions of all antifungal agents were prepared in 100% DMSO. Stock concentrations were made at 50× the highest final assay concentration and serially diluted 2-fold, 16 times in a 96-well PCR plate (VWR 83007-374). Candida and Aspergillus suspensions from Sabouraud dextrose agar plate cultures were prepared in 0.85% saline at 0.5 McFarland standard (˜0.1 OD530 nm). Candida suspensions were diluted 1:500 in RPMI (MP Biomedicals, cat no. 1060124; buffered with MOPS and adjusted with NaOH to pH 7.0) to a concentration of ˜0.5-2.5×10^3 CFU/mL and Aspergillus suspensions were diluted 1:50 in RPMI to 0.4-5×10^4 CFU/mL final concentration. 98 μL of each cell suspension in RPMI were added to test wells in a 96-well assay plate (Costar cat. no. 3370). A Beckman Multimek 96 liquid handling robot was used to dispense 2 μL of each 50× stock compound into the plate containing 98 μL of each strain in RPMI (2% final solvent concentration). Plates were shaken then incubated at 35° C. for 24-48 h prior to reading. MIC values were read visually at 50% growth inhibition for echinocandins (24 h) and at 100% growth inhibition for amphotericin B (48 h). MEC values (24 h) were read with the aid of a microscope at the lowest echinocandin concentration where rounded/compact hyphal morphology was observed.

Assay [2] has as its system A. fumigatus ATCC 13073. In words: MEC assay (Example 32). The following applies: MEC values (24 h), rounded/compact hyphal morphology. Here is the method:
as §1

Another assay concerns A. flavus ATCC MYA-3631. In words: MEC assay (Example 32). The settings on record: MEC values (24 h), rounded/compact hyphal morphology. Here is the method:
as §1

The subject of assay [3] is A. fumigatus MYA-4609. Nature of the assay: MEC assay (Example 32). The settings on record: MEC values (24 h), rounded/compact hyphal morphology. The protocol: as §1
For another assay, the system named is A. niger ATCC 16404. In words: MEC assay (Example 32). The settings on record: MEC values (24 h), rounded/compact hyphal morphology. Here is the method: as §1
Assay [4] deals with Neutrophils purified from human peripheral blood. In words: Human Neutrophil Transwell Migration Assay. The settings on record: 37° C., 45 minutes, % of the maximum migration possible. Summed up:
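Neutrophils (~50,000–100,000) were placed above 5-micron transwell inserts with test compound in the lower chamber and allowed to migrate 45 min at 37° C. Migrated cells were quantified by ATP luminescence; medium-only background was subtracted and values expressed as % of cells added directly to the bottom well.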

The subject of assay [5] is C. parapsilosis ATCC 22019. Here is the method:
as §1

Assay [6] has as its system C. glabrata ATCC 90030. The protocol: as §1
In assay [7] the test system is C. krusei ATCC 14243. Here is the method: as §1
The next assay relates to C. tropicalis ATCC 750. Here is the method: as §1
Assay [8] concerns C. albicans ATCC 90028. The protocol: as §1
Assay [9] concerns C. parapsilosis ATCC 22019. Nature of the assay: microbe, parasite or virus in culture. The following applies: C. parapsilosis ATCC 22019; RPMI pH 7.0, 35° C., 24-48 hr. Summed up:
(§2)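 Yeast colonies were suspended to a 0.5 McFarland standard and diluted 1:100, while Aspergillus suspensions were diluted to ~0.2-2.5×10^4 CFU/mL final. Organisms were then exposed to 2-fold compound series in RPMI, pH 7.0, at 35° C. for approximately 24-48 hr before visual MIC/MEC reading.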

Assay [10] concerns C. glabrata ATCC 90030. In words: microbe, parasite or virus in culture. The settings on record: C. glabrata ATCC 90030; RPMI pH 7.0, 35° C., 24-48 hr. Summed up: as §2
In assay [11] the test system is C. krusei ATCC 14243. In words: microbe, parasite or virus in culture. The settings on record: C. krusei ATCC 14243; RPMI pH 7.0, 35° C., 24-48 hr. The procedure, abridged:
as §2

The test system of assay [12] is C. albicans ATCC 90028. Nature of the assay: microbe, parasite or virus in culture. The settings on record: C. albicans ATCC 90028; RPMI pH 7.0, 35° C., 24-48 hr. Summed up: as §2
The test system of another assay is A. fumigatus MX 5944. In words: MEC assay (Example 31). The settings on record: RPMI pH 7.0, 35° C., 24-48 hr. The procedure, abridged: as §2
The subject of assay [13] is A. fumigatus MYA-3626. In words: MEC assay (Example 31). The settings on record: RPMI pH 7.0, 35° C., 24-48 hr. Summed up:
as §2

In assay [14] the test system is A. fumigatus ATCC 13073. Nature of the assay: MEC assay (Example 31). The following applies: RPMI pH 7.0, 35° C., 24-48 hr. Summed up:
as §2

The test system of assay [15] is A. fumigatus MYA-4609. In words: MEC assay (Example 31). The following applies: RPMI pH 7.0, 35° C., 24-48 hr. Summed up: as §2
In another assay the test system is A. flavus MX 5948. In words: MEC assay (Example 31). The following applies: RPMI pH 7.0, 35° C., 24-48 hr. Summed up: as §2
Where [16] appears, read: C. parapsilosis ATCC 22019, read at 50% growth inhibition for echinocandins (24 h), 100% for amphotericin B (48 h).
The mark [17] stands for this setting: C. glabrata ATCC 90030, read at 50% growth inhibition for echinocandins (24 h), 100% for amphotericin B (48 h).
Where [18] appears, read: C. krusei ATCC 14243, read at 50% growth inhibition for echinocandins (24 h), 100% for amphotericin B (48 h).
Where [19] appears, read: C. tropicalis ATCC 750, read at 50% growth inhibition for echinocandins (24 h), 100% for amphotericin B (48 h).
[20] abbreviates: C. albicans ATCC 90028, read at 50% growth inhibition for echinocandins (24 h), 100% for amphotericin B (48 h).

Structures are written as SMILES. ≈ marks a conversion by molar mass, not a printed value. Where two headings read alike, the source gives them in different places. Starred links: 1 amine or outer side, 2 acyl side, 3 side chain; linkers in the order of their positions; H or OH if unused. Positions of bridges follow the written chain, without caps; N, C: chain ends. Non-standard residues stand in square brackets, D forms with d. Residues, ends and D or L forms follow the SMILES beside them. Groups on a side chain read outwards from the residue. *: point of attachment. Orn(4R-OH,5R-OCH2CH2NMe3+) = C[N+](C)(C)CCO[C@@H](N[*:3])[C@H](O)C[C@H](N[*:1])C(=O)[*:2]; pTerphenylCO(4''-OnC5H11) = CCCCCOc1ccc(-c2ccc(-c3ccc(C(=O)*)cc3)cc2)cc1; X1 = O=C([C@@H](N[*:1])[C@H](O)[C@@H](O)c1ccc(O)c(N[*:3])c1)[*:2]; Pro(3S-OH,4S-Me) = C[C@H]1CN[C@H](C(=O)O)[C@H]1O; Hyp = O=C(O)[C@@H]1C[C@@H](O)CN1; βAla = NCCC(=O)O; For = O=C*

Regarding `CC[C@H](C)C[C@H](C)CCCCCCCCC(=O)N[C@H]1C[C@@H](O)[C@@H](OCCN)NC(=O)[C@@H]2[C@@H](O)CCN2C(=O)[C@H]([C@H](O)CCNC(=O)[C@H](Cc2ccccc2)NC(=O)[C@H](CC(C)C)NC(=O)[C@H](CC[S+](C)[O-])NC=O)NC(=O)[C@H]([C@H](O)[C@@H](O)c2ccc(O)cc2)NC(=O)[C@@H]2C[C@@H](O)CN2C(=O)[C@H]([C@@H](C)O)NC1=O` (stereo partly shown) [Compound 30], the MEC was 1 µg/mL with A. fumigatus MYA-3626 [1]; 0.25 µg/mL in the assay with A. fumigatus ATCC 13073 [2]; 0.5 µg/mL in the assay on A. flavus ATCC MYA-3631; 0.5 µg/mL with A. fumigatus MYA-4609 [3]; 0.5 µg/mL in the assay with A. niger ATCC 16404. The “% Neutrophil Migration” value in assay [4] (conc 0.001 μg/mL) is 105.2%; in assay [4] (conc 0.01 μg/mL), 133.6%; in [4] (conc 0.1 μg/mL), 234.3%; in assay [4] (conc 1 μg/mL) it was 48.2%; in assay [4] (conc 10 μg/mL) it was 19.7%. The MIC is 32 µg/mL (≈ 20.9 µM) in assay [5] (ATCC 22019, 24 h); 8 µg/mL (≈ 5.23 µM) against C. glabrata ATCC 90030 [6] (ATCC 90030, 24 h); 32 µg/mL (≈ 20.9 µM) in the assay with C. krusei ATCC 14243 [7] (ATCC 14243, 24 h); 2 µg/mL (≈ 1.31 µM) in the assay with C. tropicalis ATCC 750 (ATCC 750, 24 h); 2 µg/mL (≈ 1.31 µM) against C. albicans ATCC 90028 [8] (ATCC 90028, 24 h).

Take `CCCCCOc1ccc(-c2ccc(-c3ccc(C(=O)N[C@H]4C[C@@H](O)[C@@H](OCC[N+](C)(C)C)NC(=O)[C@@H]5[C@@H](O)[C@@H](C)CN5C(=O)[C@H]([C@@H](C)O)NC(=O)[C@H]([C@H](O)[C@@H](O)c5ccc(O)c(NC(=O)CCNC(=O)[C@H](Cc6ccccc6)NC(=O)[C@H](CC(C)C)NC(=O)[C@H](CCSC)NC=O)c5)NC(=O)[C@@H]5C[C@@H](O)CN5C(=O)[C@H]([C@@H](C)O)NC4=O)cc3)cc2)cc1.O=C[O-]` [Compound 31] ({pTerphenylCO(4''-OnC5H11)}-[Orn(4R-OH,5R-OCH2CH2NMe3+)]T[Hyp][X1]([βAla-Phe-Leu-Met-For])T[Pro(3S-OH,4S-Me)]; lactam 1-C): the MEC was found to be 0.06 µg/mL in the assay on A. fumigatus MYA-3626 [1]; 0.015 µg/mL in the assay on A. fumigatus ATCC 13073 [2]; 0.06 µg/mL in the assay with A. flavus ATCC MYA-3631; 0.03 µg/mL with A. fumigatus MYA-4609 [3]; 0.25 µg/mL in the assay with A. niger ATCC 16404. The “% Neutrophil Migration” value turned out to be 126.4% in assay [4] (conc 0.001 μg/mL); 115.7% in assay [4] (conc 0.01 μg/mL); 146.0% in [4] (conc 0.1 μg/mL); 134.3% in assay [4] (conc 1 μg/mL); 64.0% in [4] (conc 10 μg/mL). In addition, the MIC in [5] (setting [16]) was 0.5 µg/mL; in the assay on C. glabrata ATCC 90030 [6] (setting [17]) it was 2 µg/mL; with C. krusei ATCC 14243 [7] (setting [18]) it was 0.5 µg/mL; against C. tropicalis ATCC 750 (setting [19]), 0.25 µg/mL; in the assay with C. albicans ATCC 90028 [8] (setting [20]), 0.5 µg/mL.

`C[C@@H]1[C@H](O)[C@@H](C)/C=C/C=C/C=C/C=C/C=C/C=C/C=C/[C@H](O[C@@H]2O[C@H](C)[C@@H](O)[C@H](N)[C@@H]2O)C[C@@H]2O[C@](O)(C[C@@H](O)C[C@@H](O)[C@H](O)CC[C@@H](O)C[C@@H](O)CC(=O)O[C@H]1C)C[C@H](O)[C@H]2C(=O)O` [amphotericin B, reference compound]: the MIC in assay [9] is 0.5 to 2 µg/mL; against C. glabrata ATCC 90030 [10] it was 0.25 to 1 µg/mL; in the assay on C. krusei ATCC 14243 [11], 0.25-2 ^ μg/mL; in the assay on C. albicans ATCC 90028 [12], 0.12 to 1 µg/mL; in assay [5] (setting [16]), 1 µg/mL (≈ 1.08 µM); against C. glabrata ATCC 90030 [6] (setting [17]), 1 µg/mL (≈ 1.08 µM). Besides, the MIC against C. krusei ATCC 14243 [7] (setting [18]) amounted to 1 µg/mL (≈ 1.08 µM); in the assay with C. tropicalis ATCC 750 (setting [19]), 1 µg/mL (≈ 1.08 µM); in the assay with C. albicans ATCC 90028 [8] (setting [20]), 0.5 µg/mL (≈ 0.541 µM). The MEC in the assay with A. fumigatus MYA-3626 [1] is 0.25 µg/mL; with A. fumigatus ATCC 13073 [2], 0.25 µg/mL; with A. flavus ATCC MYA-3631, 1 µg/mL; in the assay on A. fumigatus MYA-4609 [3], 1 µg/mL; in the assay on A. niger ATCC 16404, 0.5 µg/mL; with A. fumigatus MX 5944, 0.5-2^ μg/mL. Besides, the MEC lay within 0.5 to 2 µg/mL in the assay on A. fumigatus MYA-3626 [13], 0.5 to 4 µg/mL in the assay with A. fumigatus ATCC 13073 [14], 0.5 to 4 µg/mL in the assay on A. fumigatus MYA-4609 [15] and 0.5 to 2 µg/mL with A. flavus MX 5948.
